Reference: PMC10299677, “Fluorinated Benzofuran and Dihydrobenzofuran as Anti-Inflammatory and Potential Anticancer Agents” (International Journal of Molecular Sciences, 2023)

How the values were obtained:
HCT116 cells [1] = assay: HCT116 proliferation (WST-1 assay); type: cell-based, human; details: for inhibition of HCT116 cell proliferation: 50 and 100 µM, 72 h; for IC50: Homo sapiens, HCT-116, 72 h
Experimental: WST-1 assay was used to determine the effect of these compounds on HCT116 proliferation. Cells were plated in 96-well plate in triplicates (5000 cells per well) for 24 h and treated with 50 and 100 µM of the different compounds for 72 h. […] Culture medium without or with 10% FBS alone was used as basal and maximal proliferation, respectively. Results were expressed as percentage of cells incubated with 10% FBS alone.
(§1) Densitometric analyses were performed using ImageJ software (NIH, MA, USA). The ratio of the different analyzed bands to β-actin was determined and data are represented as fold change compared to the LPS-treated cells. Percentage of viable cells for proliferation assay was determined as percentage to control (non-treated cells). For TUNEL assay, apoptotic cells were quantified, and results were expressed as percentage to positive cells (cleaved DNA) compared to control (non-treated cells). Statistical analysis was performed using one-way ANOVA, followed by Dunnett’s multiple comparisons test using GraphPad Prism software. Differences were considered significant when p < 0.05.

CCL2 mRNA = assay: LPS-dependent CCL2 mRNA in THP-1-derived macrophages (RT-PCR); type: cell-based, human; details: 50 µM, 10 ng/ml LPS 6 h
Experimental: F i g u re S3: Eff ect of benzofuran compounds on the lev els of LP S -dependent mRNA of CCL2 and IL-6 in THP-1 –deriv ed macrophages. Human-monoc yti c cell l ine-THP-1 wer e treat ed with PMA (25 nM for 48 hours) th en in cub ated with 50 μM compounds for 30 minutes b efo re the addit ion of 10 ng/ml LP S fo r 6 hours. Gene ex pression of IL6 and CCL2 were measur ed by RT-PCR and the v alu es wer e nor mal ized to GAPDH. Results represent means ± SEM by one way ANOVA followed by Dunnett test.

Bcl-2 = Bcl-2 protein expression in HCT116 (Western blot); type: cell-based, human; details: 10, 25 and 50 µM, 72 h
Experimental: (§2) Macrophages were incubated with the compounds for 30 min prior to the addition of 10 ng/mL LPS for 24 h. Protein levels for COX-2 and NOS2 were detected in LPS-stimulated macrophages. As previously described, 10 µg of total protein was assessed. The primary antibodies were developed and characterized as previously described: for COX-2, mouse monoclonal antibody anti-COX-2 (clone COX-214, 1/5000); for NOS2, rabbit polyclonal antibody anti-NOS2 (dilution1/2000 [33]). Antibodies anti-phospho-NF-κB (3033S), phospho-IκBα (9246S), and total IκBα (4814S) were from Cell Signaling Technologies (Danvers, MA, USA). Total NF-κB C-20 (sc-372) was from Santa Cruz Biotechnologies (Dallas, TX, USA), and mouse β-actin (dilution 1/10,000) (Sigma-Aldrich, A5441). Clarity™ western ECL substrate (Bio-Rad Laboratories 10-5061) was used according to the manufacturer’s instructions to reveal positive bands visualized using Bio-Rad ChemiDoc. For Bcl-2 and cleaved PARP-1, HCT116 cells were plated in 6-well plates (200,000 cells per well) for 24 h, and treated with compounds 1 and 2 at 10, 25, and 50 µM for 72 h. Supernatants and cells were collected and lysed using RIPA lysis buffer containing inhibitors of protease. […]

HCT116 cells [2] = assay: TUNEL assay for apoptosis (DNA cleavage) in HCT116; type: cell-based, human; details: 10, 25 and 50 µM, 72 h
Experimental: Terminal deoxynucleotidyl transferase dUTP nick-end labeling (TUNEL) assay (Sigma Aldrich 11684795910) was conducted to detect late phase of apoptosis in HCT116 cells. Cells were plated in 6-well plate (200,000 cells per well) for 24 h, and treated with compounds 1 and 2 at 10, 25, and 50 µM for 72 h. Adherent cells and cells in supernatants were collected and fixed with 4% paraformaldehyde for 2 days and then treated with PBS containing 0.1% Triton X-100 at 4 °C for 2 min. Cells were then stained with the TUNEL reagent for 1 h, and positive signals were quantified using the Guava EasyCyte8 Flow Cytometer-Millipore according to the manufacturer’s instructions.
as §1

PARP-1 = assay: Cleaved PARP-1 protein in HCT116 (Western blot); type: cell-based, human; details: 10, 25 and 50 µM, 72 h
Experimental: as §2

NO = NO (nitrite) formation in LPS-treated macrophages (BMDM); type: cell-based, C57BL/6J mice; details: for effect on NO production: 50 µM, LPS 24 h; for IC50: compounds 30 min prior to 10 ng/mL LPS for 24 h
Experimental: C57BL/6J (10–15 weeks old) male mice were obtained from the animal care facility at the American University of Beirut. All animal procedures were performed following the recommendations of the IACUC (Institutional Animal Care and Use Committee approval 16-09-M379). BMDMs were prepared and characterized as described previously by our group. BMDMs were isolated from C57BL/6J mice by flushing the femur and tibia with RPMI-1640 culture media (Sigma-Aldrich R7388), and cells were collected and centrifuged at 300× g for 5 min. The supernatant was discarded, and the pellet was resuspended in 2 mL red blood lysis 10% (Sigma-Aldrich R7767) medium in PBS and incubated for 5 min at room temperature. After diluting the suspension of cells with 5 mL of RPMI containing 10% FBS and 1% penicillin–streptomycin, cells were centrifuged at 300× g for 5 min, and the cell pellet was resuspended in RPMI media containing 10% FBS supplemented with 15% L929-conditioned medium containing macrophage-colony stimulating factor (M-CSF1) and plated on […]. Cells were allowed to proliferate and differentiate for 5–6 days. Cells were harvested, washed, and allowed to adhere overnight in RPMI containing 10% FBS for treatment. Cells were previously characterized by flow cytometry as macrophages using this method. […] Cells were plated at 0.8 × 10^6 cells per 3.8 cm^2 well [27].
BMDMs were then treated with different concentrations of the benzofuran and dihydrobenzofuran derivatives for 30 min prior to the addition of 10 ng/mL LPS for 24 h. […] The supernatants were assessed for IL-6, PGE2, CCL2, and nitrite, the stable derivative of NO, as described previously.
IL-6, CCL2, nitrite (for NO), and PGE2 concentrations from 3–5 independent experiments were expressed as percentage of LPS alone and as mean ± SEM. COX activity was determined as percentage of PGE2 produced from exogenous arachidonic acid. Curve fitting and calculation of IC50 values were performed using GraphPad Prism (version 9.5.1 Software, La Jolla, CA, USA).

COC(=O)/C=C1/Oc2ccc(Br)cc2C1(F)F [Compound 1]
inhibition of HCT116 cell proliferation (HCT116 cells [1]): more than 50%
IC50 (HCT116 cells [1]): 19.5 µM
effect on CCL2 mRNA levels (CCL2 mRNA): decreased significantly
expression of antiapoptotic protein Bcl-2 (Bcl-2): decreased
percentage of apoptotic cells, TUNEL (HCT116 cells [2]): concentration-dependent increase
protein level of cleaved PARP-1 (PARP-1): increase

O=C(O)/C=C1/Oc2ccc(Br)cc2C1(F)F [Compound 2]
inhibition of HCT116 cell proliferation (HCT116 cells [1]): more than 50%
IC50 (HCT116 cells [1]): 24.8 µM
effect on CCL2 mRNA levels (CCL2 mRNA): decreased significantly
expression of antiapoptotic protein Bcl-2 (Bcl-2): decreased
percentage of apoptotic cells, TUNEL (HCT116 cells [2]): concentration-dependent increase
effect on NO production (NO): significantly decreased
IC50 (NO; Mus musculus, Macrophage): 2.4 µM
IC50 (NO): 2.42 µM
protein level of cleaved PARP-1 (PARP-1): increase

O=C(O)/C=C1\Oc2ccc(Br)cc2C1(F)F [Compound 3]
effect on NO production (NO): significantly decreased
IC50 (NO; Mus musculus, Macrophage): 5.2 µM
IC50 (NO): 5.23 µM
